Data reported in patent US6946458B2, “N-thiolated beta-lactams: novel antibacterial agents for methicillin-resistant Staphylococcus aureus” (University of South Florida, priority 1999, dated 2005).

Key:
Test in all cases: Kirby-Bauer agar disk diffusion
[1] = system: MRSA USF652; format: cell-based, Staphylococcus aureus; conditions: for Zones of Inhibition: Table 4, 20 μg disk loading; for zone of growth inhibition, average diameter: Table 3, 6-mm disks, 20 μg test compound, 24 hours
Procedure: (§1) In this study, a selection of N-methylthio-substituted β-lactams are examined for antimicrobial activity by the Kirby-Bauer disk diffusion method on agar plates. A variety of common Gram-positive and Gram-negative bacteria are tested, including clinical isolates of methicillin-resistant Staphylococcus aureus (MRSA).
(§2) Compound susceptibility measurements are obtained from agar disk diffusion experiments using 6-mm air-dried disks impregnated with 20 μg of the test compound. The values correspond to the average diameters in mm (triplicate experiments) for the zone of growth inhibition observed after 24 h. Staphylococcus aureus (ATCC 25923) and β-lactamase-producing strains of methicillin-resistant Staphylococcus aureus (labeled as MRSA USF652-659) are obtained from Lakeland Regional Medical Center, Lakeland, Fla. Staphylococcus epidermidis, Staphylococcus simulans, Staphylococcus simulans, and Microcossus luteus are clinical isolates from University of South Florida Medical Clinic. Nieserria gonnorhoeae (β-lactamase positive) is obtained from the Tampa Branch State Laboratory. PenG is penicillin G (potassium salt). Table 1 provides the zones of growth inhibition that are observed after 24 hours using the lactams of FIGS. 1A-1I (designated A-I, respectively).
(§3) Of particular interest is the ability of these compounds to retain their effectiveness against penicillin-resistant strains of Staphylococcus aureus, a dangerous hospital-borne pathogen which is becoming difficult to treat with conventional antibiotic therapy. The lactams were screened for antibacterial activity by disk diffusion on agar plates, and the resulting zones of bacterial growth inhibition measured (see Table 3; each lactam is designated by Figure number).
(§4) Table 3: Growth inhibition zones obtained from agar disk diffusion experiments using 6-mm air-dried disks impregnated with 20 μg of the test compound. The values correspond to the average diameters in mm for the zone of growth inhibition observed after 24 hours. Staphylococcus aureus and β-lactamase-producing strains of methicillin-resistant Staphylococcus aureus (labeled MRSA USF652-659) are obtained from a clinical testing laboratory at Lakeland Regional Medical Center, Lakeland, Fla.
(§5) Those compounds were tested for bioactivity using the Kirby-Bauer test on agar plates.
(§6) Biological activity is enhanced against β-lactamase producing strains of methicillin-resistant Staphylococcus aureus (MRSA). With the lactam shown in FIG. 11A serving as a lead structure, a series of other C-4 substituted derivatives (FIGS. 11B-11I) were investigated herein. Table 5 lists microbiological data for β-lactams from Kirby-Bauer Disc Diffusion Test Results (with each lactam identified by Figure number).
(§7) Scheme I summarizes the synthesis of ester compounds 4. 4-Carboxy benzaldehyde (1) is coupled with the appropriate alcohol using DCC/DMAP, followed by reaction with p-anisidine, to give imines 2. Staudinger coupling of methoxyacetyl chloride with imine 2 gives N-aryl protected β-lactam 3. N-Dearylation of β-lactam 3 with ceric ammonium nitrate and methylthiolation with N-(methylthio)phthalimide affords N-methylthio β-lactams 4. These compounds are tested for antibacterial activity by the Kirby-Bauer method of disc diffusion on agar plates. [drawing 7]

[2] = system: MRSA USF653; format: cell-based, Staphylococcus aureus; conditions: for Zones of Inhibition: Table 4, 20 μg disk loading; for zone of growth inhibition, average diameter: Table 3, 6-mm disks, 20 μg test compound, 24 hours
Procedure: as §1, §2, §3, §4, §5, §6, §7

[3] = system: MRSA USF654; format: cell-based, Staphylococcus aureus; conditions: for Zones of Inhibition: Table 4, 20 μg disk loading; for zone of growth inhibition, average diameter: Table 3, 6-mm disks, 20 μg test compound, 24 hours
Procedure: as §1, §2, §3, §4, §5, §6, §7

[4] = system: MRSA USF655; format: cell-based, Staphylococcus aureus; conditions: for Zones of Inhibition: Table 4, 20 μg disk loading; for zone of growth inhibition, average diameter: Table 3, 6-mm disks, 20 μg test compound, 24 hours
Procedure: as §1, §2, §3, §4, §5, §6, §7

[5] = system: MRSA USF656; format: cell-based, Staphylococcus aureus; conditions: for Zones of Inhibition: Table 4, 20 μg disk loading; for zone of growth inhibition, average diameter: Table 3, 6-mm disks, 20 μg test compound, 24 hours
Procedure: as §1, §2, §3, §4, §5, §6, §7

[6] = system: MRSA USF657; format: cell-based, Staphylococcus aureus; conditions: for Zones of Inhibition: Table 4, 20 μg disk loading; for zone of growth inhibition, average diameter: Table 3, 6-mm disks, 20 μg test compound, 24 hours
Procedure: as §1, §2, §3, §4, §5, §6, §7

[7] = system: MRSA USF658; format: cell-based, Staphylococcus aureus; conditions: for Zones of Inhibition: Table 4, 20 μg disk loading; for zone of growth inhibition, average diameter: Table 3, 6-mm disks, 20 μg test compound, 24 hours
Procedure: as §1, §2, §3, §4, §5, §6, §7

[8] = system: MRSA USF659; format: cell-based, Staphylococcus aureus; conditions: for Zones of Inhibition: Table 4, 20 μg disk loading; for zone of growth inhibition, average diameter: Table 3, 6-mm disks, 20 μg test compound, 24 hours
Procedure: as §1, §2, §3, §4, §5, §6, §7

[9] = system: Staph aureus 525; format: cell-based, Staphylococcus aureus; conditions: Table 4; 20 μg disk loading
[10] = system: Micrococcus luteus; format: cell-based; conditions: Table 3, 6-mm disks, 20 μg test compound, 24 hours
Procedure: as §1, §2, §3, §4

[11] = system: Staphylococcus aureus (ATCC 25923); format: cell-based; conditions: Table 3, 6-mm disks, 20 μg test compound, 24 hours
Procedure: as §1, §2, §3, §4

[12] = system: Staphylococcus epidermidis; format: cell-based; conditions: Table 3, 6-mm disks, 20 μg test compound, 24 hours
Procedure: as §1, §2, §3, §4

[13] = system: S. simulans (ATCC 11631); format: cell-based, Staphylococcus simulans; conditions: Table 3, 6-mm disks, 20 μg test compound, 24 hours
Procedure: as §1, §2, §3, §4

[14] = system: S. saprophyticus (ATCC 3552); format: cell-based, Staphylococcus saprophyticus; conditions: Table 3, 6-mm disks, 20 μg test compound, 24 hours
Procedure: as §1, §2, §3, §4

Row | SMILES | Zones of Inhibition [1] [mm] | Zones of Inhibition [2] [mm] | Zones of Inhibition [3] [mm] | Zones of Inhibition [4] [mm] | Zones of Inhibition [5] [mm] | Zones of Inhibition [6] [mm] | Zones of Inhibition [7] [mm] | zone of growth inhibition, average diameter [1] [mm] | zone of growth inhibition, average diameter [2] [mm] | zone of growth inhibition, average diameter [3] [mm] | zone of growth inhibition, average diameter [4] [mm] | zone of growth inhibition, average diameter [5] [mm] | zone of growth inhibition, average diameter [6] [mm] | zone of growth inhibition, average diameter [7] [mm] | zone of growth inhibition, average diameter [8] [mm] | zone of growth inhibition, average diameter [10] [mm] | zone of growth inhibition, average diameter [11] [mm] | zone of growth inhibition, average diameter [12] [mm] | zone of growth inhibition, average diameter [13] [mm] | zone of growth inhibition, average diameter [14] [mm] | further results
1 | CCC(C)SN1C(=O)C(OC)C1c1ccccc1Cl (mixture of isomers) [sec-Butyl] | 38 | 34 | 35 | 34 | 36 | 33 | 35 |  |  |  |  |  |  |  |  |  |  |  |  |  | Zones of Inhibition [8]: 33 mm; Zones of Inhibition [9]: 32 mm
2 | CCCCSN1C(=O)C(OC)C1c1ccccc1Cl (racemic) [Butylthio] | 26 | 27 | 23 | 23 | 25 | 26 | 20 |  |  |  |  |  |  |  |  |  |  |  |  |  | Zones of Inhibition [8]: 24 mm; Zones of Inhibition [9]: 25 mm
3 | COC1C(=O)N(SC2CCCCC2)C1c1ccccc1Cl (racemic) [Cyclo-hexyl] | 25 | 20 | 21 | 22 | 23 | 23 | 26 |  |  |  |  |  |  |  |  |  |  |  |  |  | Zones of Inhibition [8]: 22 mm; Zones of Inhibition [9]: 21 mm
4 | CCSN1C(=O)C(OC)C1c1ccccc1Cl (racemic) [Ethylthio] | 33 | 33 | 27 | 28 | 29 | 29 | 30 |  |  |  |  |  |  |  |  |  |  |  |  |  | Zones of Inhibition [8]: 30 mm; Zones of Inhibition [9]: 26 mm
5 | COC1C(=O)N(SC)C1C#Cc1ccccc1 (racemic) [FIG. 2B] |  |  |  |  |  |  |  | 29 | 29 | 27 | 27 | 30 | 28 | 27 | 24 | 28 | 27 | 30 | 19 | 23 | 
6 | COC1C(=O)N(SC)C1C=Cc1ccccc1 (racemic) [FIG. 3A] |  |  |  |  |  |  |  |  |  |  |  |  |  |  |  |  |  |  |  |  | zone of growth inhibition, average diameter ([1]; listed as 3A): 10 mm; zone of growth inhibition, average diameter ([2]; listed as 3A): 18 mm; zone of growth inhibition, average diameter ([3]; listed as 3A): 12 mm; zone of growth inhibition, average diameter ([4]; listed as 3A): 12 mm; zone of growth inhibition, average diameter ([5]; listed as 3A): 13 mm; zone of growth inhibition, average diameter ([6]; listed as 3A): 11 mm; zone of growth inhibition, average diameter ([7]; listed as 3A): 10 mm; zone of growth inhibition, average diameter ([8]; listed as 3A): 10 mm; zone of growth inhibition, average diameter ([10]; listed as 3A): 11 mm; zone of growth inhibition, average diameter ([11]; listed as 3A): 10 mm; zone of growth inhibition, average diameter ([12]; listed as 3A): 12 mm; zone of growth inhibition, average diameter ([13]; listed as 3A): 9 mm; zone of growth inhibition, average diameter ([14]; listed as 3A): 14 mm
7 | COC1C(=O)N(SC)C1C=Cc1ccccc1 (racemic) [FIG. 3B] |  |  |  |  |  |  |  |  |  |  |  |  |  |  |  |  |  |  |  |  | zone of growth inhibition, average diameter ([1]; listed as 3B): 25 mm; zone of growth inhibition, average diameter ([2]; listed as 3B): 26 mm; zone of growth inhibition, average diameter ([3]; listed as 3B): 22 mm; zone of growth inhibition, average diameter ([4]; listed as 3B): 21 mm; zone of growth inhibition, average diameter ([5]; listed as 3B): 24 mm; zone of growth inhibition, average diameter ([6]; listed as 3B): 22 mm; zone of growth inhibition, average diameter ([7]; listed as 3B): 21 mm; zone of growth inhibition, average diameter ([8]; listed as 3B): 17 mm; zone of growth inhibition, average diameter ([10]; listed as 3B): 23 mm; zone of growth inhibition, average diameter ([11]; listed as 3B): 21 mm; zone of growth inhibition, average diameter ([12]; listed as 3B): 26 mm; zone of growth inhibition, average diameter ([13]; listed as 3B): 12 mm; zone of growth inhibition, average diameter ([14]; listed as 3B): 16 mm
8 | CSN1C(=O)C(OC(C)=O)C1C=Cc1ccccc1 (racemic) [FIG. 3C] |  |  |  |  |  |  |  | 18 | 18 | 16 | 18 | 17 | 16 | 16 | 15 | 17 | 15 | 19 | 10 | 12 | 
9 | CSN1C(=O)C(Oc2ccccc2)C1C=Cc1ccccc1 (racemic) [FIG. 3D] |  |  |  |  |  |  |  | 14 | 16 | 14 | 15 | 13 | 13 | 12 | 12 | 10 | 15 | 10 | 8 | 11 | 
10 | COC1C(=O)N(SC)C1CCc1ccccc1 (racemic) [FIG. 3E] |  |  |  |  |  |  |  | 18 | 20 | 17 | 15 | 17 | 14 | 15 | 15 | 20 | 16 | 12 | 9 | 9 | 
11 | CSN1C(=O)C(OC(C)=O)C1CCc1ccccc1 (racemic) [FIG. 3F] |  |  |  |  |  |  |  | 17 | 18 | 17 | 15 | 18 | 17 | 15 | 16 | 23 | 17 | 18 | 11 | 13 | 
12 | CSN1C(=O)C(Oc2ccccc2)C1CCc1ccccc1 (racemic) [FIG. 3G] |  |  |  |  |  |  |  | 14 | 12 | 13 | 11 | 13 | 12 | 12 | 12 | 17 | 14 | 12 | 8 | 10 | 
